Measurements as given in a compilation of properties of binary mixtures (doi:10.1016/j.molliq.2014.08.031).

Test: xn = mol fraction of the nth substance listed
Details: 101 kPa

`CCCC[n+]1ccn(C)c1.CS(=O)(=O)[O-]` + O gave an electrical conductivity (328.15 K, x2 = 0.796) of 3.01 S/m, an electrical conductivity (328.15 K, x2 = 0.861) of 5.12 S/m and an electrical conductivity (328.15 K, x2 = 0.892) of 6.23 S/m. It also gave an electrical conductivity (328.15 K, x2 = 0.929) of 7.21 S/m, an electrical conductivity (328.15 K, x2 = 0.968) of 7 S/m and an electrical conductivity (329.15 K, x1 = 0.004) of 2.04 S/m. For the same molecule, the electrical conductivity (329.15 K, x1 = 0.008) was 3.67 S/m, the electrical conductivity (329.15 K, x1 = 0.019) was 5.81 S/m and the electrical conductivity (329.15 K, x2 = 0.785) was 2.9 S/m. It also gave an electrical conductivity (329.15 K, x2 = 0.796) of 3.05 S/m, an electrical conductivity (329.15 K, x2 = 0.861) of 5.25 S/m and an electrical conductivity (329.15 K, x2 = 0.892) of 6.26 S/m. For the same molecule, the electrical conductivity (329.15 K, x2 = 0.929) was 7.35 S/m, the electrical conductivity (329.15 K, x2 = 0.951) was 7.83 S/m and the electrical conductivity (330.15 K, x1 = 0.004) was 2.09 S/m. The electrical conductivity (330.15 K, x1 = 0.008) was 3.72 S/m, the electrical conductivity (330.15 K, x1 = 0.019) was 5.88 S/m and the electrical conductivity (330.15 K, x2 = 0.704) was 1.84 S/m. The electrical conductivity (330.15 K, x2 = 0.785) was 2.98 S/m, the electrical conductivity (330.15 K, x2 = 0.861) was 5.37 S/m and the electrical conductivity (330.15 K, x2 = 0.892) was 6.36 S/m. The electrical conductivity (330.15 K, x2 = 0.929) was 7.5 S/m, the electrical conductivity (330.15 K, x2 = 0.951) was 7.95 S/m and the electrical conductivity (330.15 K, x2 = 0.968) was 7.38 S/m. It also gave an electrical conductivity (331.15 K, x1 = 0.004) of 2.13 S/m, an electrical conductivity (331.15 K, x1 = 0.008) of 3.77 S/m and an electrical conductivity (331.15 K, x2 = 0.785) of 3.04 S/m. It also gave an electrical conductivity (331.15 K, x2 = 0.796) of 3.2 S/m, an electrical conductivity (331.15 K, x2 = 0.892) of 6.46 S/m and an electrical conductivity (331.15 K, x2 = 0.929) of 7.61 S/m. The electrical conductivity (331.15 K, x2 = 0.951) was 8.05 S/m, the electrical conductivity (331.15 K, x2 = 0.968) was 7.39 S/m and the electrical conductivity (332.15 K, x1 = 0.004) was 2.15 S/m. For the same molecule, the electrical conductivity (332.15 K, x1 = 0.008) was 3.83 S/m, the electrical conductivity (332.15 K, x1 = 0.019) was 6.06 S/m and the electrical conductivity (332.15 K, x2 = 0.704) was 1.99 S/m. It also gave an electrical conductivity (332.15 K, x2 = 0.785) of 3.13 S/m, an electrical conductivity (332.15 K, x2 = 0.796) of 3.29 S/m and an electrical conductivity (332.15 K, x2 = 0.861) of 5.61 S/m. For the same molecule, the electrical conductivity (332.15 K, x2 = 0.892) was 6.57 S/m, the electrical conductivity (332.15 K, x2 = 0.968) was 7.57 S/m and the electrical conductivity (333.15 K, x1 = 0.004) was 2.17 S/m. For the same molecule, the electrical conductivity (333.15 K, x1 = 0.008) was 3.78 S/m, the electrical conductivity (333.15 K, x1 = 0.019) was 6.17 S/m and the viscosity (333.15 K, x2 = 0.5596) was 14 mPa·s. The viscosity (333.15 K, x2 = 0.6542) was 9.62 mPa·s, the electrical conductivity (333.15 K, x2 = 0.704) was 2.04 S/m and the viscosity (333.15 K, x2 = 0.7495) was 6.25 mPa·s. The electrical conductivity (333.15 K, x2 = 0.785) was 3.21 S/m, the electrical conductivity (333.15 K, x2 = 0.796) was 3.36 S/m and the viscosity (333.15 K, x2 = 0.8521) was 3.29 mPa·s. For the same molecule, the electrical conductivity (333.15 K, x2 = 0.861) was 5.75 S/m, the electrical conductivity (333.15 K, x2 = 0.892) was 6.73 S/m and the viscosity (333.15 K, x2 = 0.9254) was 1.742 mPa·s. It also gave an electrical conductivity (333.15 K, x2 = 0.929) of 7.9 S/m, an electrical conductivity (333.15 K, x2 = 0.951) of 8.3 S/m and a viscosity (333.15 K, x2 = 0.975) of 0.79 mPa·s. The electrical conductivity (334.15 K, x1 = 0.004) was 2.18 S/m, the electrical conductivity (334.15 K, x1 = 0.008) was 3.93 S/m and the electrical conductivity (334.15 K, x1 = 0.019) was 6.35 S/m. For the same molecule, the electrical conductivity (334.15 K, x2 = 0.704) was 2.12 S/m, the electrical conductivity (334.15 K, x2 = 0.785) was 3.28 S/m and the electrical conductivity (334.15 K, x2 = 0.796) was 3.43 S/m. For the same molecule, the electrical conductivity (334.15 K, x2 = 0.861) was 5.94 S/m, the electrical conductivity (334.15 K, x2 = 0.892) was 6.95 S/m and the electrical conductivity (334.15 K, x2 = 0.929) was 8.03 S/m. For the same molecule, the electrical conductivity (334.15 K, x2 = 0.951) was 8.46 S/m, the electrical conductivity (335.15 K, x1 = 0.008) was 3.98 S/m and the electrical conductivity (335.15 K, x1 = 0.019) was 6.33 S/m. For the same molecule, the electrical conductivity (335.15 K, x2 = 0.704) was 2.17 S/m, the electrical conductivity (335.15 K, x2 = 0.785) was 3.35 S/m and the electrical conductivity (335.15 K, x2 = 0.796) was 3.52 S/m. For the same molecule, the electrical conductivity (335.15 K, x2 = 0.861) was 5.97 S/m, the electrical conductivity (335.15 K, x2 = 0.892) was 7.12 S/m and the electrical conductivity (335.15 K, x2 = 0.929) was 8.18 S/m. For the same molecule, the electrical conductivity (335.15 K, x2 = 0.951) was 8.59 S/m, the electrical conductivity (335.15 K, x2 = 0.968) was 7.93 S/m and the electrical conductivity (336.15 K, x1 = 0.008) was 4.04 S/m. The electrical conductivity (336.15 K, x1 = 0.019) was 6.42 S/m, the electrical conductivity (336.15 K, x2 = 0.704) was 2.19 S/m and the electrical conductivity (336.15 K, x2 = 0.785) was 3.42 S/m. The electrical conductivity (336.15 K, x2 = 0.796) was 3.59 S/m, the electrical conductivity (336.15 K, x2 = 0.861) was 6.09 S/m and the electrical conductivity (336.15 K, x2 = 0.892) was 7.28 S/m. It also gave an electrical conductivity (336.15 K, x2 = 0.929) of 8.3 S/m, an electrical conductivity (336.15 K, x2 = 0.968) of 8.02 S/m and an electrical conductivity (337.15 K, x1 = 0.004) of 2.29 S/m. For the same molecule, the electrical conductivity (337.15 K, x1 = 0.008) was 4.1 S/m, the electrical conductivity (337.15 K, x1 = 0.019) was 6.53 S/m and the electrical conductivity (337.15 K, x2 = 0.704) was 2.3 S/m. The electrical conductivity (337.15 K, x2 = 0.785) was 3.52 S/m, the electrical conductivity (337.15 K, x2 = 0.892) was 7.41 S/m and the electrical conductivity (337.15 K, x2 = 0.951) was 8.9 S/m. The electrical conductivity (337.15 K, x2 = 0.968) was 8.19 S/m, the electrical conductivity (338.15 K, x1 = 0.004) was 2.31 S/m and the electrical conductivity (338.15 K, x1 = 0.008) was 4.15 S/m. For the same molecule, the electrical conductivity (338.15 K, x2 = 0.704) was 2.35 S/m, the electrical conductivity (338.15 K, x2 = 0.892) was 7.53 S/m and the electrical conductivity (338.15 K, x2 = 0.929) was 8.57 S/m. It also gave an electrical conductivity (338.15 K, x2 = 0.968) of 8.14 S/m, an electrical conductivity (339.15 K, x1 = 0.004) of 2.35 S/m and an electrical conductivity (339.15 K, x1 = 0.008) of 4.19 S/m. For the same molecule, the electrical conductivity (339.15 K, x1 = 0.019) was 6.73 S/m, the electrical conductivity (339.15 K, x2 = 0.704) was 2.42 S/m and the electrical conductivity (339.15 K, x2 = 0.785) was 3.67 S/m. It also gave an electrical conductivity (339.15 K, x2 = 0.796) of 3.85 S/m, an electrical conductivity (339.15 K, x2 = 0.861) of 6.47 S/m and an electrical conductivity (339.15 K, x2 = 0.892) of 7.69 S/m. For the same molecule, the electrical conductivity (339.15 K, x2 = 0.929) was 8.73 S/m, the electrical conductivity (339.15 K, x2 = 0.951) was 9.11 S/m and the electrical conductivity (340.15 K, x1 = 0.004) was 2.39 S/m. It also gave an electrical conductivity (340.15 K, x1 = 0.008) of 4.25 S/m, an electrical conductivity (340.15 K, x1 = 0.019) of 6.83 S/m and an electrical conductivity (340.15 K, x2 = 0.704) of 2.47 S/m. The electrical conductivity (340.15 K, x2 = 0.785) was 3.75 S/m, the electrical conductivity (340.15 K, x2 = 0.796) was 3.93 S/m and the electrical conductivity (340.15 K, x2 = 0.861) was 6.6 S/m. It also gave an electrical conductivity (340.15 K, x2 = 0.892) of 7.77 S/m, an electrical conductivity (340.15 K, x2 = 0.929) of 8.85 S/m and an electrical conductivity (340.15 K, x2 = 0.951) of 9.22 S/m. It also gave an electrical conductivity (340.15 K, x2 = 0.968) of 8.56 S/m, an electrical conductivity (341.15 K, x1 = 0.004) of 2.42 S/m and an electrical conductivity (341.15 K, x1 = 0.008) of 4.29 S/m. The electrical conductivity (341.15 K, x1 = 0.019) was 6.96 S/m, the electrical conductivity (341.15 K, x2 = 0.704) was 2.54 S/m and the electrical conductivity (341.15 K, x2 = 0.785) was 3.84 S/m. For the same molecule, the electrical conductivity (341.15 K, x2 = 0.796) was 4.07 S/m, the electrical conductivity (341.15 K, x2 = 0.861) was 6.71 S/m and the electrical conductivity (341.15 K, x2 = 0.929) was 9.03 S/m. It also gave an electrical conductivity (341.15 K, x2 = 0.951) of 9.15 S/m, an electrical conductivity (341.15 K, x2 = 0.968) of 8.57 S/m and an electrical conductivity (342.15 K, x1 = 0.008) of 4.35 S/m. For the same molecule, the electrical conductivity (342.15 K, x1 = 0.019) was 6.93 S/m, the electrical conductivity (342.15 K, x2 = 0.704) was 2.61 S/m and the electrical conductivity (342.15 K, x2 = 0.796) was 4.11 S/m. It also gave an electrical conductivity (342.15 K, x2 = 0.929) of 9.18 S/m, an electrical conductivity (342.15 K, x2 = 0.951) of 9.55 S/m and an electrical conductivity (342.15 K, x2 = 0.968) of 8.66 S/m. The electrical conductivity (343.15 K, x1 = 0.008) was 4.38 S/m, the electrical conductivity (343.15 K, x1 = 0.019) was 7.17 S/m and the viscosity (343.15 K, x2 = 0.5596) was 10.6 mPa·s.
